Experimental data from US9603861B2, “Compositions and methods for treating hyperproliferative epidermal diseases” (DERMIPSOR LTD., priority 2005, dated 2017).

Key:
[1] = test system: HaCat cells; test: Growth curve and mitotic activity; type: cell-based, human; settings: 10 mM NA
Procedure: Growth curve and mitotic activity: 2×10^4 cells per ml were seeded in 24-well tissue culture plates and incubated without or with 10 mM NA. The cells were detached by trypsinization at different times (48 h-168 h) following passage and counted using a haemocytometer in tetra-aliquots. For estimation of mitotic activity the cells were cultured on glass coverslips into Petri dishes. After 72 h incubation with or without 10 mM NA the cells were fixed with methanol, stained with Giemsa stain and analyzed by light microscopy. Frequency of mitotic cells at different stages of mitotic cycle (pro-, meta-, ana- and telophases) was calculated. At least 1000 cells were counted for each experiment.

[2] = test system: HaCat cells; test: Cornified envelope formation; type: cell-based, human
Procedure: (§1) Cornified Envelope Formation: Late differentiation processes in HaCat cells treated with NA and or calcipotriol were measured by determining the cornified cell envelope formation, according to the procedures described in Sun and Green (1976) and PCT publication WO 01/51051.

[3] = test system: PARP; test: Immunoblot analysis of PARP expression; type: cell-based, human
Procedure: Immunoblot analysis of PARP expression: immune complexes were detected by incubation with secondary anti-mouse alkaline phosphatase conjugated antibody AP124A (dilution 1:5000) followed by developing with BCIP/NBT color substrate.

[4] = test system: involucrin; test: Indirect immunofluorescence, involucrin expression; type: cell-based, human
Procedure: (§2) Effects of NA and or calcipotriol on early (keratin k10 expression) and late (involucrin expression) differentiation processes in HaCat cells were estimated by indirect immunofluorescence.
(§3) In brief, 2×10^4 cells/ml were seeded on glass coverslips into Petri dishes with 0, 5, 10 and 20 mM NA or calcipotriol. After 72 hours of incubation, cells on the glass coverslips were washed with PBS, fixed by ice-cold mixture of methanol:acetone (1:1) and incubated at −20° C. for 10 minutes. Fixed cells were washed in PBS and incubated with blocking buffer (1% BSA in PBS) for 10 minutes, to minimize non-specific absorption of the primary antibodies to the coverslips. Thereafter, the cells were incubated for 1 hour with primary monoclonal antibodies (Keratin 10 expression was detected by antihuman mouse monoclonal antibody, at 1/50 final dilution; Involucrin expression was detected by antihuman involucrin mouse monoclonal antibody at 1/100 final dilution), at 37° C. hour in a humidified chamber. Exhaustive, PBS-washed cells were incubated with fluorophor conjugated goat anti-mouse IgG, at 1/50 final dilution, for 30 minutes at room temperature. The slides were viewed under a Zeiss microscope (Axioskop-2) equipped with epifluorescence optics and the appropriate filters to avoid cross-channel contamination. The level of keratin 10 and involucrin expression was estimated by counting the positive cells relative to the total cell number. On each slide, at least 500-1000 cells were scored.

[5] = test system: human primary keratinocytes; test: Proliferation assay (MTT method), human primary keratinocytes; type: cell-based; settings: NA in pharmacological concentrations, dose dependent
Procedure: The antiproliferative activity of calcipotriol and nicotinamide was tested in two model systems: the first a spontaneously immortalized human keratinocyte, which is referred to herein as “HaCat cells” or “HaCat keratinocytes”, and serves as a model for highly proliferative epidermis, such as, but not limited to, psoriatic epidermis (Okenfels et al, 1998), and as a model for effects of external modulators of epidermal differentiation (Paramio, et al., 1997). The second system includes rapidly proliferating human keratinocytes, which are referred to herein as “cultured human epidermal keratinocytes”, and serves as a model for detecting antiproliferative agents in the treatment of psoriasis (Nikoloff, et al., 1988). Human Epidermal Keratinocytes (passages 3-6), obtained from normal face-lift surgery, were cultivated in serum-free KGM®-2 BulletKit® (Clonetics, USA) medium with low calcium for accelerated proliferation of the keratinocytes. The viability and/or proliferation of HaCat cells and Cultured Human Epidermal Keratinocytes, following treatment with various concentrations of calcipotriol, nicotinamide (NA) or a combination thereof was determined by the MTT assay, according manufacturer in 96-well microtiter plates.

[6] = test system: keratin 10 (K10); test: Indirect immunofluorescence, keratin 10 expression; type: cell-based, human; settings: 72 hours
Procedure: as §2
as §3, with “The level of keratin 10 and involucrin expression was estimated by counting the positive cells relative to the total cell number.” left out

[7] = test system: A431; test: Proliferation assay, A431 cells; type: cell-based; settings: NA in pharmacological concentrations, dose dependent
Procedure: (§4) Certain in vitro assays based on keratinocyte cell culture were performed to test NA and the combination of NA and calcipotriol. The experimental design has been described in PCT Patent Publication WO 01/51051, of some of the inventors of the present application.

[8] = test system: HaCat cells; test: Proliferation assay (MTT method), HaCat cells; type: cell-based, human
Procedure: The antiproliferative activity of calcipotriol and nicotinamide was tested in two model systems: the first a spontaneously immortalized human keratinocyte, which is referred to herein as “HaCat cells” or “HaCat keratinocytes”, and serves as a model for highly proliferative epidermis, such as, but not limited to, psoriatic epidermis (Okenfels et al, 1998), and as a model for effects of external modulators of epidermal differentiation (Paramio, et al., 1997). The second system includes rapidly proliferating human keratinocytes, which are referred to herein as “cultured human epidermal keratinocytes”, and serves as a model for detecting antiproliferative agents in the treatment of psoriasis (Nikoloff, et al., 1988). These models have been used, according to the present invention, to test the antiproliferative efficacy of agents described herein. […] The viability and/or proliferation of HaCat cells and Cultured Human Epidermal Keratinocytes, following treatment with various concentrations of calcipotriol, nicotinamide (NA) or a combination thereof was determined by the MTT assay, according manufacturer in 96-well microtiter plates.

[9] = test system: KM12; test: Proliferation assay, KM12 cells; type: cell-based; settings: NA in pharmacological concentrations, dose dependent
[10] = test system: benign and malignant epidermal cells; test: Differentiation markers in benign and malignant epidermal cells; type: cell-based
Procedure: as §4, §1, §2

[11] = test system: HaCat cells; test: Apoptosis and necrosis by fluorescence microscopy; type: cell-based, human
Procedure: Estimation of apoptosis and necrosis was analyzed using fluorescence microscopy as previously described (Harel et al, 2002). Briefly, HaCat cells were cultured on glass slides and exposed to various concentration of NA (5, 10, 20 and 50 mM). After 72 h the cells were stained with the DNA binding dyes Hoechst 33342 and propidium iodide. Viable cells were identified by intact nuclei and their blue fluorescence, necrotic cells by intact nuclei and red fluorescence, and cells in early or late phase of apoptosis, by fragmented nuclei and blue or red fluorescence. At least one thousand cells were counted for each treatment.

[12] = test system: HaCat cells; test: Cell cycle parameters by flow cytometry; type: cell-based, human; settings: NA 72 h, dose dependent
Procedure: Determination of apoptosis and cell cycle parameters was performed by flow cytometry. Cells were seeded in 25 cm2 tissue culture flasks and cultured for 48 h, and then they were exposed to 5, 10 and 20 mM NA for 72 h. Flow cytometry was performed on nuclei prepared with a detergent-trypsin method and stained with propidium iodide (Vindelov et al, 1983).

[13] = test system: A431 cells; test: Apoptosis in A431 cells; type: cell-based
[14] = test system: HaCat keratinocytes; test: Long-term NA treatment of HaCat keratinocytes, oxidative stress; type: cell-based, human; settings: long-term treatment with NA
Description: Other long-term cultures of cells with other agents are similarly obtained by cultivating HaCat cells, for a prolonged period of time, in medium supplemented with combinations of NA, vitamin D and derivatives thereof and vitamin A.

[15] = Skin permeation, Franz diffusion cell; type: in vitro ADME, porcine; settings: formulations CP and CPNA, 12 hours; QL 1.3 ng/mL
Procedure: Three formulations were prepared. The first comprised Nicotinamide (NA, 2.1 mg/g), the second Calcipotriol (CP, 50 μg/g) and the third, a combination of Calcipotriol (50 μg/g) and Nicotinamide (2.1 mg/g)(CPNA).
The Franz cell assembly and porcine ear skin are used for measuring permeation of drugs through the skin in vitro from various systems and dosage forms (Dick et al. 1992; Simon, et al. 2000; Touitou et al. 1998; Chien 1992). The experiments were carried out in vitro using the Franz diffusion cell assembly and full-thickness skin from porcine ear. The diffusion cells are made from an inert material and the assembly allows for good receiver-fluid mixture and temperature control.
Porcine ear skin was excised from the outer part of the ear and separated from the underlying cartilage. The skin was stored frozen at −20° C. until use, always less than one week. […] A quantity of 100 mg test formulation was placed on 1.77 cm^2 skin in the donor compartment. […]
The experiments were run non-occluded for 12 hours. […] The samples were analyzed for Nicotinamide and Calcipotriol concentrations by HPLC as further described. […]
HPLC assays: The HPLC assays of nicotinamide and calcipotriol were carried as follows: Nicotinamide was analyzed in a Waters Alliance 2795 LC and Quattro Micro™ HPL chromotograph LC-MS system with Hypersil BDS C18, 3 μm, 150×2.1 mm (CN 28103-152130, batch #4796) column. […]

For `NC(=O)c1cccnc1` [NA, Nicotinamide], the growth curve ([1]; 48-168 hours) was “growth retardation”, the “percentage of mitotic cells, times lower compared to untreated” value ([1]; 72 h) was “about 2.5 times” and the “frequency of basal and cornified envelope cells” value ([2]; 5 mM or 10 mM NA) was “no statistically significant effect”. For the same molecule, the “cornified envelope cell formation” value ([2]; 15 mM NA) was “increased”, the “level of basal cells” value ([2]; 15 mM NA, untreated 58.6±10.24%) was 25.6±5.76% and the “frequency of basal cells, of total cell population” value ([2]; 20 mM NA) was “about 15%”. The “frequency of envelope cornified cells, of total cell population” value ([2]; 20 mM NA, untreated 4.4±2.78%) was “about 15%”, the “PARP expression (Western blot)” value ([3]; 10 mM or 20 mM NA) was “express a basal level of undegraded 116 kDa PARP full protein” and the “PARP expression (Western blot)” value ([3]; 50 mM NA, 85 kDa cleavage fragment appears) was “induced degradation of PARP”. For the same molecule, the “increase of involucrin expression vs control” value ([4]; 5 mM NA) was “about 2 times”, the “level of involucrin expression (positive cells)” value ([4]; 5 mM NA, control 6.0±1.22%) was 11.2±1.68% and the “frequency of involucrin positive cells” value ([4]; 10 mM NA) was 11.0±1.13%. The “frequency of involucrin positive cells” value ([4]; 20 mM NA) was 15.1±3.93%, the “Proliferation of human primary keratinocytes” value [5] was “significantly inhibited” and the “K10 expression compared to control cells” value ([6]; 5 mM to 10 mM NA) was “no effect”. For the same molecule, the “stimulation of K10 expression” value ([6]; 20 mM NA) was 3 fold, the “Proliferation of A431” value [7] was “significantly inhibited” and the “rate of HaCat cell proliferation” value ([8]; 0.5-5 mM NA, 72 h) was “did not change the rate of HaCat cell proliferation”. For the same molecule, the “Proliferation of HaCat keratinocytes” value ([8]; NA in pharmacological concentrations, dose dependent) was “significantly inhibited”, the “Proliferation of KM12” value [9] was “significantly inhibited” and the “differentiation processes: K10, Involucrin, enveloped cornified cell formation markers” value [10] was “promotes the differentiation processes”. For the same molecule, the “apoptotic death in HaCat cells (summary statement)” value [11] was “does not induce apoptotic death”, the apoptogenic effect ([11]; 20 mM and 50 mM NA, 72 h) was “significant apoptogenic effect” and the “cells in stage of early apoptosis” value ([11]; 50 mM NA) was 9%. For the same molecule, the “effected cells with signs of late apoptosis” value ([11]; 50 mM NA) was “about 91%”, the necrotic cell death ([11]; all tested NA concentrations (5-50 mM)) was “no tested concentration of NA induced necrotic cell death” and the “frequency of cells in G0-G1, S and G2-M phases” value [12] was “reduction of the cell number in S and G2-M-phases”. For the same molecule, the “apoptotic death in A431 cells” value [13] was “does not induce apoptotic death”, the “anti-oxidative enzymes (glutathione peroxidase and catalase)” value [14] was “high levels of anti-oxidative enzymes” and the “protection to oxidative stress (hydrogen peroxide)” value [14] was “high level of protection to oxidative stress”.

With `C=C1/C(=C\C=C2/CCC[C@]3(C)[C@@H]([C@H](C)/C=C/[C@@H](O)C4CC4)CC[C@@H]23)C[C@@H](O)C[C@@H]1O` [calcipotriol, Calcipotriol] the “calcipotriol in the receiver compartment” value [15] was “No calcipotriol was detected”.
